Here are results for four molecules from patent US20220000854A1 (CHASE THERAPEUTICS CORPORATION, priority 2018, published 2022).

Structures are written as SMILES.

Data set [1] has as its system Caenorhabditis elegans. Conditions: in vivo; cited from earlier work.
For data set [2] the following is noted: in vivo; cited from earlier work.
The conditions of data set [3]: in vivo; cited from earlier work. The source holds these as a separate data set.
For data set [4] the following is noted: co-treatment with pramipexole; cited from earlier work.
The conditions of data set [5]: large doses, acute systemic administration; cited from earlier work.
For data set [6] the following is noted: doses approved for motor symptoms of PD; 535 PD patients; cited from earlier work.
The conditions of data set [7]: 5 mg/day of pramipexole, cited from earlier work.
The subject of data set [8] is human neuroblastoma SH-SY5Y cells. Conditions: cited from earlier work.
Data set [9] deals with human wild-type alpha-synuclein (Homo sapiens, UniProt P37840). Conditions: in vitro, by H2O2 plus cytochrome c; cited from earlier work.
Data set [10] relates to dopaminergic neurons. Conditions: mouse PD model, cited from earlier work.
Data set [11] deals with alpha-synuclein (Homo sapiens, UniProt P37840). Conditions: cited from earlier work.
For data set [12] the following is noted: 4.5 mg/day with levodopa, entcapone, selegiline and zonisamide; after switch from immediate-release to extended-release; cited from earlier work.
For data set [13] the following is noted: Period 2 (with oral domperidone) versus Period 1 (pramipexole alone). An excerpt:
The study is single center, single-blind study.
To be enrolled in the study, participants must meet the following inclusion/exclusion key criteria:
History of drug or other significant allergy. • 5.

Data set [14] concerns 6-OHDA-lesioned cell model. Conditions: cited from earlier work.
Data set [15] concerns brain cell systems. As to conditions: cited from earlier work.
The subject of data set [16] is rat corticostriatal slices. Conditions: 0.3, 1, 3 and 10 μM; cited from earlier work.
For data set [17], the system named is nigrostriatal dopaminergic neurons. Conditions: chronic administration, compared with saline; cited from earlier work.
In data set [18] the test system is nigral dopamine neurons. As to conditions: 6-OHDA mice, injection of 30 mg/kg; cited from earlier work.
The conditions of data set [19]: 25 mg-50 mg, alone or with levodopa; cited from earlier work.
Data set [20] has as its target T1, A53T α-synuclein (Homo sapiens, UniProt P37840, A53T).
T1 construct: host or cells: rat brain in vivo, transduced with a viral vector
As to conditions: oral 40 mg/kg/day, cited from earlier work.

The subject of data set [21] is nigral TH-positive neurons. As to conditions: MPTP-treated mice, 20 mg/kg; cited from earlier work.

Regarding `CNCCC(Oc1ccc(C(F)(F)F)cc1)c1ccccc1` (stereo not drawn) [fluoxetine, 1-methylamino-3-phenyl-3-[4-(trifluoromethyl)phenoxy]propane], in data set [1], the amyloid-β-induced paralysis result was “significantly delay amyloid-β-induced paralysis”. Besides, the MPTP induced damage entry in data set [2] is given as “protect against”. For the same molecule, the 6-OHDA induced damage entry in [3] was “protect against”. Moreover, the “activity of pramipexole in the forced swimming test” value in data set [4] is reported as “enhance the activity of pramipexole”. In data set [5], the “extracellular concentrations of norepinephrine and dopamine” value was “significant increase in extracellular concentrations of norepinephrine and dopamine”.

For the molecule `CCCN[C@H]1CCc2nc(N)sc2C1` [pramipexole, (S)-6-propylamino-4,5,6,7-tetrahydro-1,3-benzothiazole-2-amine], the “neuroprotective (disease modifying) activity” value in data set [6] is on record as “failed to evidence neuroprotective (i.e., disease modifying) activity”. In data set [7], the patients with nausea is reported as 76% and the patients with vomiting was 39%. Further, in data set [7] (presumably intolerable GI adverse events), the “patients not able to complete the study” value is listed as 36%. Moreover, the aggregation of alpha-synuclein entry in [8] is on record as “inhibit the aggregation of alpha-synuclein”. The “oligomerization of human wild-type alpha-synuclein” value in data set [9] is “decreases the in vitro oligomerization of human wild-type alpha-synuclein”. In data set [10] (rotenone), the immunoreactivity for alpha-synuclein result is listed as “reducing immunoreactivity for alpha-synuclein”. In data set [10], the “toxic effects of rotenone on dopaminergic neurons” value is recorded as “inhibits the toxic effects of rotenone on dopaminergic neurons”. In data set [11], the “synuclein oligomer formation / aggregation in vitro” value is “diminishes synuclein oligomer formation in vitro”. Moreover, the hallucinations entry in data set [12] is given as “induce hallucinations”. In [13], the “Maximum Tolerated Dose (MTD) of pramipexole” value is recorded as “higher than MTD during Period 1”.

Turning to `CCC(C)(C)C(=O)O[C@H]1C[C@@H](C)C=C2C=C[C@H](C)[C@H](CC[C@@H]3C[C@@H](O)CC(=O)O3)[C@H]21` [simvastatin, (1S,3R,7S,8S,8aR)-8-{2-[(2R,4R)-4-hydroxy-6-oxotetrahydro-2H-pyran-2-yl]ethyl}-3,7-dimethyl-1,2,3,7,8,8a-hexahydronaphthalen-1-yl 2,2-dimethylbutanoate], the “neuroprotection against dopaminergic neurodegeneration” value in [14] is on record as “robust neuroprotection against dopaminergic neurodegeneration”. The “protection against 6-hydroxydopamine (6-OHDA)” value in [15] is “protect against the deleterious consequences of the dopaminergic neurotoxin 6-hydroxydopamine”.

In the case of `NS(=O)(=O)Cc1noc2ccccc12` [zonisamide, benzo[d]isoxazol-3-ylmethanesulfonamide], in data set [16], the “rotenone-induced toxicity (loss of corticostriatal field potential amplitude)” value is reported as “significantly reduced the rotenone-induced toxicity”. Besides, in [17], the “survival of nigrostriatal dopaminergic neurons” value was “improved the survival of nigrostriatal dopaminergic neurons”. In data set [18], the “loss of nigral dopamine neurons” value is listed as “prevented the loss of nigral dopamine neurons”. Moreover, the motor symptoms entry in [19] is “improve motor symptoms”. Moreover, in [20], the “survival of nigrostriatal dopamine neurons” value is recorded as “no impact on the survival of nigrostriatal dopamine neurons”. For the same molecule, the pace of degeneration result in data set [20] (four weeks after viral vector injection, versus control group) is “significantly delayed the pace of degeneration”. Besides, in [11], the “synuclein oligomer formation / aggregation in vitro” value was “inhibits the in vitro oligomerization and aggregation of alpha-synuclein”. In [21], the “loss of nigral TH-positive neurons” value is recorded as “reduced the loss of nigral TH-positive neurons” and the striatal dopamine depletion result is on record as “attenuating the associated striatal dopamine depletion”.
